Laboratory results published in patent US20250388602A1 (Genase Therapeutics B.V., priority 2022, published 2025).
Read-outs that look alike come from different tables or passages of the source.

Legend:
in vitro [1] = settings: for hHEPs % remaining: 1 μM
Protocol: Human Hepatocyte metabolic stability: Human hepatocytes (X008000, BioIVT) were freshly thawed prior to the incubations with test compound. Hepatocytes were transferred to 50 mL conical tubes and centrifuged 10 min at 100 g. Thawing medium was removed and replaced by preheated (37° C.) incubation medium (William's E Medium supplemented with GlutaMAX), to yield a hepatocyte density ˜1.5×10^6 cells/mL. Cell viability was determined using AO/PI staining and hepatocytes were diluted using incubation medium to a working density of 0.5×10^6 viable cells/mL. 198 μL of hepatocytes were added into each well of a 96-well plate and placed in the incubator to allow the hepatocytes to warm for 10 minutes. 2 μL test compound or positive control was placed into respective wells of the 96-well plate (final concentration test compound 1 μM) to start the reaction. The plate was returned to the incubator and 25 μL aliquots of the well contents were removed at time points of 0, 15, 30, 60, 90 and 120 minutes. The aliquots were mixed with 6 volumes (150 μL) of acetonitrile containing internal standards (100 nM alprazolam, 200 nM caffeine, and 100 nM tolbutamide) to terminate the reaction. The plate was centrifuged for 20 minutes at 3,200 g. Aliquots of 150 μL of the supernatants were used for LC/MS/MS analysis. All incubations were performed in duplicate.
(§1) Peak areas were determined from extracted ion chromatograms to determine the in vitro half-life (t½) of parent compound by regression analysis of the percent parent disappearance vs. time curve. The in vitro half-life (in vitro t½) was determined from the slope value (in vitro t½=−0.693/k). All calculations were carried out using Microsoft Excel.

CYP2B6 = CYP2B6 (Homo sapiens (Human), UniProt P20813); experiment: biochemical; assay type: in vitro ADME
CYP2B6, sequence (P20813 whole entry): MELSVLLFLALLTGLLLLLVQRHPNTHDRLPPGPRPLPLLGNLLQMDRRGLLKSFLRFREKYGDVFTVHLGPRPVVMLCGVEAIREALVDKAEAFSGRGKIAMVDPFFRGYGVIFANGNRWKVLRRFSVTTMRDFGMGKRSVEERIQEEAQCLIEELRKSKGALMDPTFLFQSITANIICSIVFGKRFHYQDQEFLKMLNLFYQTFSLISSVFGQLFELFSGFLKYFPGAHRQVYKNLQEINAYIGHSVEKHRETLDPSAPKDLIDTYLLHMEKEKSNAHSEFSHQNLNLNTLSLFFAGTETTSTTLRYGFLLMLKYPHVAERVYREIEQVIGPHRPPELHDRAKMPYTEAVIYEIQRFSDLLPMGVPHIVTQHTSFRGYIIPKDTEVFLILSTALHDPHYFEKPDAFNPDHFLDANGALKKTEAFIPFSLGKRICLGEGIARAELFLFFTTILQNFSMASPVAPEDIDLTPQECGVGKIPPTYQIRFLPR
Protocol: (§2) CYP inhibition: Co-incubation of compounds with P450 enzyme-selective substrates was performed using pooled human liver microsomes (Cat. No. H0610, Xenotech), to determine their potential to cause drug-drug interactions. The assay was performed in duplicate. The formation of acetaminophen, 7′-hydoxycoumarin, hydrobupropion, N-desethylamodiaquine, 4′-hydroxydiclofenac, 4′-hydroxymephenytoin, 1′-hydroxybufuralol, 6″-hydroxychlorzoxazone were quantified as markers for CYP1A2, CYP2A6, […], CYP2C8, CYP2C9, CYP2C19, […], CYP2E1, respectively. CYP3A4 inhibition was measured using 2 substrates, measuring the formation of […] (3A4-T), and 1′-hydroxymidazolam (3A4-M). The incubation was carried out in 96 deep well plates each well containing: 179 μL of the master solution (0.2 mg/mL microsomes plus CYP substrate (see below for final substrate concentration and incubation time for the different CYP assays)) in 100 mM phosphate buffer and 1 μL of the compound working solution or vehicle. The final concentrations of the compounds in the assay was 30 μM when using a single dose or 0.1, 0.3, 1, 3, 10 and 30 μM for a dose response.
(§3) The incubation plate was placed into a water bath and pre-warmed at 37° C. for 5 minutes before the reactions were started by the addition of 20 μL of 10 mM NADPH solution and incubated at 37° C. for the time listed above. The reaction was stopped by addition of 1.5 volumes (300 μL) of cold ACN containing 3% formic acid and 200 nM tolbutamide, 200 nM aprozolam and 200 nM labalol. The plate was centrifuged at 3,220 g for 50 minutes and then 200 μL of the supernatant was transferred to the analysis plate for LC/MS/MS analysis. The respective metabolite formation from each probe substrate was compared with that observed for the solvent control incubations.

CYP2A6 = CYP2A6 (Homo sapiens (Human), UniProt P11509); experiment: biochemical; assay type: in vitro ADME
CYP2A6, sequence (P11509 whole entry): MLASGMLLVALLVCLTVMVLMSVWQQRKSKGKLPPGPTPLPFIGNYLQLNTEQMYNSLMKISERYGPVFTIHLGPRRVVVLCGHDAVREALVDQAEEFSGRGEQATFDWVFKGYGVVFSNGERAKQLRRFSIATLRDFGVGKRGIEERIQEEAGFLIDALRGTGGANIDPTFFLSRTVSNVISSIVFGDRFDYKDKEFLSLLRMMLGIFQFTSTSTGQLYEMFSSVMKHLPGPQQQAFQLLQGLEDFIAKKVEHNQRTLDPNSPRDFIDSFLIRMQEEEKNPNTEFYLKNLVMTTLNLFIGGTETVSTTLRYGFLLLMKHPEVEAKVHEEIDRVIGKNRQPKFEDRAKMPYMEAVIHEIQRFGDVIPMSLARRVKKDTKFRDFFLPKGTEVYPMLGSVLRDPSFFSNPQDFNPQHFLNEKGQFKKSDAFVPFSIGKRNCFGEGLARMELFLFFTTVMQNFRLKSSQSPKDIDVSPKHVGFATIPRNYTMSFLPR
Protocol: as §2, §3

CYP2C8 = CYP2C8 (Homo sapiens (Human), UniProt P10632); experiment: biochemical; assay type: in vitro ADME
CYP2C8, sequence (P10632 whole entry): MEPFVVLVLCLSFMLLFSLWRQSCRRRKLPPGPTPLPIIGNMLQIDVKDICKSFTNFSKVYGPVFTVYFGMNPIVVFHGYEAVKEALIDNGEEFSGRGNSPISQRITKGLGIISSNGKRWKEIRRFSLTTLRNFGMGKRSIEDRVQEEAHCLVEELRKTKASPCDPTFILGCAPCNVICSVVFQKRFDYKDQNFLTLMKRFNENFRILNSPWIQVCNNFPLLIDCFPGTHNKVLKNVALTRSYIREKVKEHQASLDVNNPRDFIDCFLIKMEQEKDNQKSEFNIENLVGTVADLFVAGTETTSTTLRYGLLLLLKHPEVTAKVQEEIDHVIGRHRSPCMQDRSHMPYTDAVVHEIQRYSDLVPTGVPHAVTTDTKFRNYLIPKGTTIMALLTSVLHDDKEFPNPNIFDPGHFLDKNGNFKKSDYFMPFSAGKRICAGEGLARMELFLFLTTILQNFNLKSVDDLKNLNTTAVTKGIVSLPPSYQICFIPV
Protocol: as §2, §3

CYP2C19 = CYP2C19 (Homo sapiens (Human), UniProt P33261); experiment: biochemical; assay type: in vitro ADME
CYP2C19, sequence (P33261 whole entry): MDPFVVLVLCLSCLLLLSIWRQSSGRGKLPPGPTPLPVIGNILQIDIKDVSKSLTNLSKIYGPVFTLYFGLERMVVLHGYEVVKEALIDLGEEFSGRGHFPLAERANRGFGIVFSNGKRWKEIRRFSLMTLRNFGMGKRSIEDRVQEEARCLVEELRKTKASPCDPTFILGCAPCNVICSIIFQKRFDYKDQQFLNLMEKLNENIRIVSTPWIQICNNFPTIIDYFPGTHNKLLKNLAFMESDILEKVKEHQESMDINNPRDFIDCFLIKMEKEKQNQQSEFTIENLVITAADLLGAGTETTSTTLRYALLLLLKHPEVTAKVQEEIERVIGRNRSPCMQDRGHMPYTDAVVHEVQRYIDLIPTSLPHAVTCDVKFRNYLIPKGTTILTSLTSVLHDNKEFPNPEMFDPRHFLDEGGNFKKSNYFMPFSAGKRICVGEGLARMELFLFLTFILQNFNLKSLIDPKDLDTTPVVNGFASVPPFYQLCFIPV
Protocol: as §2, §3

CYP2D6 = CYP2D6 (Homo sapiens (Human), UniProt P10635); experiment: biochemical; assay type: in vitro ADME
CYP2D6, sequence (P10635 whole entry): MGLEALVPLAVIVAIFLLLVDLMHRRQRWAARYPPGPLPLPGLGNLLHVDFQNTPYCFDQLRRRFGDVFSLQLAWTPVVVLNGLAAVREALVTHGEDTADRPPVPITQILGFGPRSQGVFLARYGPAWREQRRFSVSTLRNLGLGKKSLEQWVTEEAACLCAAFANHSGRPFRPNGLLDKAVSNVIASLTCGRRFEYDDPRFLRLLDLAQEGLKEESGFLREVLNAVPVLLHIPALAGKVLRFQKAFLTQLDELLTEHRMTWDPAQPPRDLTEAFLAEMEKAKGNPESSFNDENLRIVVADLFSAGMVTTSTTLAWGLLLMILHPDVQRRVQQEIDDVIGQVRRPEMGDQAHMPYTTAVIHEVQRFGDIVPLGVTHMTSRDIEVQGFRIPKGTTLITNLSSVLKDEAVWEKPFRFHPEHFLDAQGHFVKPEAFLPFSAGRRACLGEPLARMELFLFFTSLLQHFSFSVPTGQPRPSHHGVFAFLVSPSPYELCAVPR
Protocol: as §2, §3

CYP3A4 = CYP3A4 (Homo sapiens (Human), UniProt P08684); experiment: biochemical; assay type: in vitro ADME
CYP3A4, sequence (P08684 whole entry): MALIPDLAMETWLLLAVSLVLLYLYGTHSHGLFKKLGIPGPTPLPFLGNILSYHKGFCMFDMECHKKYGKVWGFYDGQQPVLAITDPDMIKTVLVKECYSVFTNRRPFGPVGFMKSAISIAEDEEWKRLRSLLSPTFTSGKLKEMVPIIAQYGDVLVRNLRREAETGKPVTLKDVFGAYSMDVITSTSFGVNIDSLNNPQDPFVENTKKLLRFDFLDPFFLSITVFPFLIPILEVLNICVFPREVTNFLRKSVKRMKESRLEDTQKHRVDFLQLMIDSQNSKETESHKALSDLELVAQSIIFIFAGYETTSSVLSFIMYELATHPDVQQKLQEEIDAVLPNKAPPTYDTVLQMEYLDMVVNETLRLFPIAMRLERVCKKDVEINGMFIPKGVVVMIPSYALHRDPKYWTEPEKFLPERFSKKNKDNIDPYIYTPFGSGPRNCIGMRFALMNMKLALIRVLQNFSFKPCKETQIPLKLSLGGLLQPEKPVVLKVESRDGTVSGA
Protocol: as §2, §3

CYP2E1 = CYP2E1 (Homo sapiens (Human), UniProt P05181); experiment: biochemical; assay type: in vitro ADME
CYP2E1, sequence (P05181 whole entry): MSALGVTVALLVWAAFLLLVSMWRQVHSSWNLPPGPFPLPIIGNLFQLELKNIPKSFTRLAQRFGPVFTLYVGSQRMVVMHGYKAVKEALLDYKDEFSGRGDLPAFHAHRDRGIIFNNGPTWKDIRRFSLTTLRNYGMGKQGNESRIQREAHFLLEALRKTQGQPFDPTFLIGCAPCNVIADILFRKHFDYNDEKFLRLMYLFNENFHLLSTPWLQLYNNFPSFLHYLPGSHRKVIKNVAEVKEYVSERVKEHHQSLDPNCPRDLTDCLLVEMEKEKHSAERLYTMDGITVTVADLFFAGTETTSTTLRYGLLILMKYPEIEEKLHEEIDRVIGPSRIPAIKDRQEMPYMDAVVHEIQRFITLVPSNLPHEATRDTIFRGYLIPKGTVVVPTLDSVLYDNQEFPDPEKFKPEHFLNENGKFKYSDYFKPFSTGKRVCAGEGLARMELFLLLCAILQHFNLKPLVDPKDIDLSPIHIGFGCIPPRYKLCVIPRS
Protocol: as §2, §3

CYP2C9 = CYP2C9 (Homo sapiens (Human), UniProt P11712); experiment: biochemical; assay type: in vitro ADME
CYP2C9, sequence (P11712 whole entry): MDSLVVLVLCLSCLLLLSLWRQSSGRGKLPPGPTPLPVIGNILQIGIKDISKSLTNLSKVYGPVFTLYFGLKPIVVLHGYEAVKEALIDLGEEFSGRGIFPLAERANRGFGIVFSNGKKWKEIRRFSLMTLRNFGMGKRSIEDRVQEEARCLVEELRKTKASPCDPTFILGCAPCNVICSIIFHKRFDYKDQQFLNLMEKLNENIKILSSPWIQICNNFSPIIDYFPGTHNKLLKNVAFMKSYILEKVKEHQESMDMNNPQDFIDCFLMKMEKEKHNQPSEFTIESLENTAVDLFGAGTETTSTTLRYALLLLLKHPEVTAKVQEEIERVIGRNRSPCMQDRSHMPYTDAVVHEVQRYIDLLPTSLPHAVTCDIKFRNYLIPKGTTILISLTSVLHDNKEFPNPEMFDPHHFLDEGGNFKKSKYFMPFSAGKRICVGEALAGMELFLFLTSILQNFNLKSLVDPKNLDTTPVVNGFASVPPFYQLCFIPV
Protocol: as §2, §3

CYP1A2 = CYP1A2 (Homo sapiens (Human), UniProt P05177); experiment: CYP inhibition in pooled human liver microsomes; assay type: in vitro ADME
CYP1A2, sequence (P05177 whole entry): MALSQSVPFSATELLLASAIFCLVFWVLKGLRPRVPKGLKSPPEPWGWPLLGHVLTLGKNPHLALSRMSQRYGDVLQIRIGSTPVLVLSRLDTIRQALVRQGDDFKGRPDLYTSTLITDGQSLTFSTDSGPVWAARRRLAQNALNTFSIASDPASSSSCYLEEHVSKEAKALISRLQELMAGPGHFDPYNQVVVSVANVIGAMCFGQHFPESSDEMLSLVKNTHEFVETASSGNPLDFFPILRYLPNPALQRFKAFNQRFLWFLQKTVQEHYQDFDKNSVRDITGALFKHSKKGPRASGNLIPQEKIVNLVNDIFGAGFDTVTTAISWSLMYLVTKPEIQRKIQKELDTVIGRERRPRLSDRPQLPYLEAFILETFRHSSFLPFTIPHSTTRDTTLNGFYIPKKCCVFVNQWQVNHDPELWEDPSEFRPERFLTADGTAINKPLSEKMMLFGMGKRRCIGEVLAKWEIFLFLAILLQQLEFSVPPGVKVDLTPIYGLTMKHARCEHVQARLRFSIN
Protocol: as §2
The incubation plate was placed into a water bath and pre-warmed at 37° C. for 5 minutes before the reactions were started by the addition of 20 μL of 10 mM NADPH solution and incubated at 37° C. for the time listed above. […]

in vitro [2] = settings: for HLM % remaining: % remaining at 60 min, 1 μM; for half-life at 1 μM: both, human
Protocol: Human Liver Microsomal metabolic stability: The microsomal metabolic stability assay utilized pooled human liver microsomes (mixed gender, BD Gentest), with supplemented cofactors NADPH and UDPGA (Solarbio S&T Co., LTD). Two separate experiments were performed as follows: • a) With cofactors (NADPH & UDPGA): 25 μL of 10 mM NADPH and 25 μL of 20 mM UDPGA were added to 197.5 μL of reaction solution (phosphate buffer (final concentration in assay 100 mM), MgCl2 (final concentration in assay (5 mM)), alamethacin (final concentration in assay 0.025 mg/mL) and microsomes (final concentration in assay 0.5 mg/mL). • b) Without cofactors (NADPH & UDPGA): 50 μL of H2O was added to 197.5 μL of reaction solution.
The mixture was pre-warmed at 37° C. for 10 minutes. The reaction was started with the addition of 2.5 μL of 100 μM control compound or test compound solutions. Diclofenac was used as positive control in this study. The final concentration of control compound and test compounds was 1 μM. Aliquots of 25 μL were taken from the reaction solution at 0.5, 5, 15, 30 and 60 minutes. The reaction was stopped by the addition of 5 volumes of cold acetonitrile containing internal standards. Samples were centrifuged at 3,220 g for 40 minutes. An aliquot of 100 μL of the supernatant was mixed with 100 μL of ultra-pure H2O and then used for LC-MS/MS analysis. Peak areas were determined from extracted ion chromatograms. Percent parent remaining was calculated from the area ratio of test compound. The slope value was determined by linear regression of the natural logarithm of percent parent remaining versus incubation time curve.
as §1

recombinant human DHODH = recombinant human DHODH (Homo sapiens (Human), UniProt Q02127); experiment: DHODH enzyme assay (Assay A), DCIP absorbance; assay type: biochemical; settings: bins ≥10 nM-<100 nM and <10 nM; read-out: IC50 DHODH inhibition activity
recombinant human DHODH, sequence (Q02127 whole entry): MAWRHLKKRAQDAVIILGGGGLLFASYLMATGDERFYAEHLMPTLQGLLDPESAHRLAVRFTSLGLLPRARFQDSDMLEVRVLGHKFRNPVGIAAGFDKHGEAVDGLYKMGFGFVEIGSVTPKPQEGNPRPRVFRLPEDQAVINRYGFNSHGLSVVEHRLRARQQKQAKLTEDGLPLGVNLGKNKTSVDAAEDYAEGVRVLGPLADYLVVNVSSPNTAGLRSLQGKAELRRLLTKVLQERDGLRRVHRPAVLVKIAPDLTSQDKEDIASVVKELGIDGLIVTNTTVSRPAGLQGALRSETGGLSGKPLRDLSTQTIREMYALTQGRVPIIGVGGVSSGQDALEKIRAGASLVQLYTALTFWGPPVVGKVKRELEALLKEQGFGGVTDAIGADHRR

MOLM-13 cells = experiment: MOLM-13 cell viability (Assay B), Cell Titer-Glo; assay type: cell-based; settings: Homo sapiens, read-out: IC50 MOLM13 inhibition activity
Summary of the method: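 Cells at 1,000 per well in RPMI/10% FBS were exposed to compound (10E-5 to 6E-12 M), with or without 100 μM uridine, for 72 h. Viability was read by CellTiter-Glo luminescence. Duplicates were run, and potency was taken from two independent experiments.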

[3] = MOLM-13, 72 hours, bins ≥10 nM-<100 nM and <10 nM

Row | SMILES | hHEPs % remaining (in vitro [1]; % remaining at 120 min) | half-life at 1 μM (in vitro [1]; human, hepatocytes) | IC50 (CYP2B6) | IC50 (CYP2A6) | IC50 (CYP2C8) | IC50 (CYP2C19) | IC50 (CYP2D6) | IC50 (CYP3A4; IC50 CYP3A4-M, substrate Midozolam) | IC50 (CYP3A4; IC50 CYP3A4-T, substrate Testosterone) | IC50 (CYP2E1) | IC50 (CYP2C9) | IC50 (CYP1A2) | HLM % remaining (in vitro [2]) | half-life at 1 μM (in vitro [2]; pooled liver microsomes) | IC50 (recombinant human DHODH) | IC50 (MOLM-13 cells; MOLM-13, 72 h) | half-life at 1 μM (in vitro [2]; microsomes) | IC50 (MOLM-13 cells; [3]) | hHEPs % remaining (in vitro [1]; human, hepatocytes, 2 h)
1 | COc1ccc(F)c(-n2ncc3c2CCC[C@H]3NC(=O)c2ncn3c2CCCC3)c1Cl [Compound C, reference compound] | 100% | > 10 h | > 30 µM | > 30 µM | > 30 µM | 18 µM | > 30 µM | 16 µM | > 30 µM | > 30 µM | 9.2 µM | > 30 µM | 69% | 1.7 h |  |  |  |  | 
2 | Cc1cccc(Cl)c1-n1ncc2c1COC[C@H]2NC(=O)c1ncn2c1CCCC2 [Ex-34, (S)—N-(1-(2-chloro-6-methylphenyl)-1,4,5,7-tetrahydropyrano[3,4-c]pyrazol-4-yl)-5,6,7,8-tetrahydroimidazo[1,5-a]pyridine-1-carboxamide] | 100% | > 10 h |  |  |  |  |  |  |  |  |  |  | 100% |  | < 0.01 µM | < 0.01 µM | 5.62 h |  | 
3 | O=C(N[C@@H]1COCc2c1cnn2-c1c(Cl)cccc1Cl)c1ncn2c1CCCC2 (single isomer, unassigned) [Ex-13] | 95% | > 10 h |  |  |  |  |  |  |  |  |  |  | 88% | > 6.08 h | < 0.01 µM |  |  | < 0.01 µM | 
4 | O=C(N[C@@H]1COCc2c1cnn2-c1ccccc1F)c1ncn2c1CCCC2 (single isomer, unassigned) [Ex-3] |  | 9.97 h |  |  |  |  |  |  |  |  |  |  | 92% | > 6.08 h | 0.01 to 0.1 µM |  |  | 0.01 to 0.1 µM | 87%
5 | O=C(N[C@@H]1COCc2c1cnn2-c1ccccc1Cl)c1ncn2c1CCCC2 [Ex-51, (S)—N-(1-(2-chlorophenyl)-1,4,5,7-tetrahydropyrano[3,4-c]pyrazol-4-yl)-5,6,7,8-tetrahydroimidazo[1,5-a]pyridine-1-carboxamide] | 100% | > 10 h |  |  |  |  |  |  |  |  |  |  | 85% | 5.93 h | 0.01 to 0.1 µM |  |  | < 0.01 µM | 
